According to article PMC10363080, “Modulatory Effect of Pyrus pyrifolia Fruit and its Phenolics on Key Enzymes against Metabolic Syndrome: Bioassay-Guided Approach, HPLC Analysis, and In Silico Study” (Plant Foods for Human Nutrition (Dordrecht, Netherlands), 2023):

Legend:
[1] = ABTS radical scavenging antioxidant assay; design: ABTS AA (%) antioxidant activity percentage: concentration or dose not given beside the values; conditions: for ABTS antioxidant activity: Trolox equivalent per gram of sample, mean ± SD, n=3; for ABTS AA (%) antioxidant activity percentage: compared to ascorbic acid (=100)
Procedure: (§1) all of analytical grade. An electrothermal 9100 (UK) was used for the determination of melting points (uncorrected). A Jenway model 6800 spectrophotometer was utilized for recording UV spectra. A Tecan, microplate reader, ((Infinite F50, Switzerland)) was used to measure the absorbances. A Bruker NMR system was used for 1H-NMR (400 MHz) and 13C-NMR (100 MHz).
(§2) The NMR spectra were determined in CD3OH and DMSO-d6. Chemical shifts are given in δ (ppm) relative to the internal standard TMS. Phenolic acids and flavonoids used in HPLC analysis as well as all other reagents for biological investigations were obtained from Sigma Chemical Company […]
(§3) Determination of the antioxidant activity
(§4) 2,2`-Azino-bis(3-ethylbenzothiazoline-6-sulfonic acid) (ABTS), ferric reducing antioxidant power (FRAP), and oxygen radical absorbance capacity (ORAC) assays were performed according to the previously published procedures. Ascorbic acid was used as a reference antioxidant […]
drug. […]

[2] = Oxygen radical absorbance capacity (ORAC) assay; conditions: for ORAC antioxidant activity: Trolox equivalent per gram of sample, mean ± SD, n=3; for ORAC AA (%) antioxidant activity percentage: compared to ascorbic acid (=100)
Procedure: as §1, §2, §3, §4
drug. […]

pancreatic α-amylase = molecular target: T1, pancreatic α-amylase (Sus scrofa, UniProt P00690); assay: α-Amylase inhibitory activity (starch substrate); type: biochemical, porcine; conditions: isolated compounds, Table S7; read-out: Inhibition (IC50) α-Amylase
T1 construct: pancreatic α-amylase (ex -porcine pancreas, EC 3.2.1.1, Sigma); purchased Sigma; host or cells: porcine pancreas
T1 sequence (P00690 16-511): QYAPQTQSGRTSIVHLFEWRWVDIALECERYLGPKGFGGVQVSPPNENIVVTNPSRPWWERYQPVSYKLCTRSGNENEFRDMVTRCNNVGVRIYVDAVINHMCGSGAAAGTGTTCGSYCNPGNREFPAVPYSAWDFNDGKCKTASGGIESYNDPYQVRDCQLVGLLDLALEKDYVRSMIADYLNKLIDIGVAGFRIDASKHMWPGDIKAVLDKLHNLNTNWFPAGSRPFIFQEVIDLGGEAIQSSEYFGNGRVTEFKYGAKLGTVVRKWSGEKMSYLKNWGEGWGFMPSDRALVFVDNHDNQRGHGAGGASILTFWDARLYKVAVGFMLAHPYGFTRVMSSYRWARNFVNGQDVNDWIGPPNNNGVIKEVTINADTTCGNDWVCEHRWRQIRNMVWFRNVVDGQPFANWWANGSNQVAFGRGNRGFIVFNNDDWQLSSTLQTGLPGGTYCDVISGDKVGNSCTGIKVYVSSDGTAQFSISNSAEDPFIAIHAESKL
Procedure: (§5) Phenolic acids and flavonoids used in HPLC analysis as well as all other reagents for biological investigations were obtained from Sigma Chemical Company […]
(§6) Inhibitory activity against key enzymes related to metabolic syndrome (MS) All assays were performed in 96-well plates. Stock solutions of the extract (100 mg/mL), fractions (100 mg/mL), and isolated compounds (1000 µM) were prepared. Tested samples that exceeded […]
(§7) inhibitory concentration (IC50). The percentage of enzyme inhibition was calculated according to […]
(§8) % Inhibition = (A−B) − (C−D) x 100 […]
α-Amylase inhibitory activity
α-Amylase inhibition assays were performed according to a previously described method. The tested samples we re incubated with pancreatic α-amylase (ex -porcine pancreas, EC 3.2.1.1, Sigma) followed by the addition of starch and iodine -potassium iodide solution for colo r development.
Starch [50 μL, 1% phosphate-buffered saline (PBS)] was mixed as substrate with 13 U mL−1 pancreatic α-amylase prepared in PBS, and 50 μL of test solution. A blank was performed using PBS. To initiate the reaction, the enzyme was added to the assay solution after being pre-incubated separately at 37 °C in a water bath for 10 min. Dinitrosalicylic acid reagent (1 mL) was added and […]
heated at 85 °C for 15 min. Then, it was cooled to room temperature and distilled water (1 mL) […]
was added. […] The absorbance was recorded at 540 nm.
Pancreatic lipase inhibitory activity […]

Recombinant renin = molecular target: T2, Recombinant renin (Homo sapiens, UniProt P00797); assay: Renin inhibitory activity (renin-inhibitor screening assay kit); type: biochemical; conditions: isolated compounds, Table S7; read-out: Inhibition (IC50) Renin (converted)
T2 construct: purchased BPS Bioscince
T2 sequence (P00797 67-406): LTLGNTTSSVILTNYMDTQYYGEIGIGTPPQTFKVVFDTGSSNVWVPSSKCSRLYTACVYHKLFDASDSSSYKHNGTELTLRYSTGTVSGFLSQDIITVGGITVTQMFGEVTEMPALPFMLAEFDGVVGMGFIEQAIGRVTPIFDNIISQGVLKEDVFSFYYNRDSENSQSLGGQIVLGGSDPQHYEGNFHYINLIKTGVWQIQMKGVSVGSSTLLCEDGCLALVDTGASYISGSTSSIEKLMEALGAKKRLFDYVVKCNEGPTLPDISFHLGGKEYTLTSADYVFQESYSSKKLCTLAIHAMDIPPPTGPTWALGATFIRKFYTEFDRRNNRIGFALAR
Procedure: all of analytical grade. […]
as §5, §6, §7, §8
Renin inhibitory activity
The renin inhibitory activity was examined according to a previously described method using renin-inhibitor screening assay kit (BPS Bioscince, San Diego, CA, USA) and quinapril as a reference drug. Recombinant renin enzyme (50 μL) was dissolved in 50-mM Tris-HCl buffer (pH 8.0) and 100-mM NaCl (assay buffer) and stored at –80°C for further analysis. Twenty μL of renin substrate (A500 μM in DMSO), 150 μL of assay buffer, and 10 μL of each sample were used to prepare test solutions (10mg/ml in methanol). The blank samples were made using 10 μL of the sample, 20 μL of the substrate, and 160 μL of assay buffer. The positive control samples were created using 10 μL of methanol, 20 μL of substrate, and 150 μL of assay buffer. The positive control and tested samples were combined with 10 μL of the renin solution for the assay in order to catalyze the reaction. After that, the reaction mixture was incubated for 45 minutes at 37 °C.
The fluorescence generated at the 340 nm excitation and 490 nm emission wavelengths was measured using a microplate reader.
Xanthine oxidase (XO) inhibitory activity
Xanthine oxidase (XO) inhibitory potential was carried out according to a previous designed procedure using xanthine oxidase (XO, EC 1.17.3.2; Biovision, USA). Allopurinol was applied as a reference drug. Immediately prior to use, a mixture was made up of 50 μL of sample solution, 35 μL of phosphate buffer (70 mM, pH = 7.5), and 30 μL of new enzyme solution (0.01 units/mL in the same buffer). The reaction was started by adding 60 μL of the substrate solution (150 μM xanthine in the same buffer) following a pre-incubation at 25 °C for 15 minutes. After that, the mixture was incubated at 25 °C for 30 min. After adding 25 μL of 1 M HCl to terminate the reaction, the absorbance was measured at 290 nm with a microplate reader as previously

SMILES	ABTS antioxidant activity [1]	ABTS AA (%) antioxidant activity percentage [1]	ORAC antioxidant activity [2]	ORAC AA (%) antioxidant activity percentage [2]	IC50 (pancreatic α-amylase)	IC50 (Recombinant renin)	ABTS antioxidant activity ([1]; listed as Cinnamic acid (P6))	ORAC antioxidant activity ([2]; listed as Cinnamic acid (P6))
COc1cc(-c2oc3cc(O)cc(O)c3c(=O)c2O[C@@H]2O[C@H](CO)[C@@H](O)[C@H](O)[C@H]2O)ccc1O [P3, isorhamnetin-3-O-β-D-glucopyranoside]	229.71±0.38 μM TE/g	79.82%	320.78±0.55 μM TE/g	82.21%	2.31 ± 0.87 µM	34.8 ± 0.79 µM		
C[C@@H]1O[C@@H](OC[C@H]2O[C@@H](Oc3c(-c4ccc(O)c(O)c4)oc4cc(O)cc(O)c4c3=O)[C@H](O)[C@@H](O)[C@@H]2O)[C@H](O)[C@H](O)[C@H]1O [P1, rutin]	180.29±1.08 μM TE/g	62.64%	266.30±0.75 μM TE/g	68.25%	3.54 ± 0.21 µM	40.8 ± 1.3 µM		
O=C(O)/C=C/c1ccccc1 [P6, cinnamic acid]	250.28±0.21 μM TE/g	86.97%	362.55±1.20 μM TE/g	92.91%	1.02 ± 0.63 µM	20.7 ± 0.8 µM	250.28 ± 0.21 μM TE/g	362.55 ± 1.20 μM TE/g
O=C(/C=C/c1ccc(O)c(O)c1)O[C@@H]1C[C@](O)(C(=O)O)C[C@@H](O)[C@H]1O [P4, chlorogenic acid]					3.78 ± 0.19 µM	47.8 ± 0.25 µM		
O=c1c(O[C@@H]2O[C@H](CO)[C@@H](O)[C@H](O)[C@H]2O)c(-c2ccc(O)c(O)c2)oc2cc(O)cc(O)c12 [P2, isoquercitrin]	240.75±0.28 μM TE/g	83.66%	346.28±0.29 μM TE/g	88.74%	1.54 ± 0.18 µM	24.8 ± 1.3 µM		
